Drawing on patent US9440982B2 (Eolas Therapeutics, Inc., priority 2012, dated 2016), this text covers IC50 and inhibition for 23 compounds.

The target of one data set is T1, OX1 (Homo sapiens, UniProt O43613).
T1 construct: expressed in transfected cells; host or cells: CHO (CHO-OX1, kept under selection antibiotic)
T1 sequence (O43613 1-425): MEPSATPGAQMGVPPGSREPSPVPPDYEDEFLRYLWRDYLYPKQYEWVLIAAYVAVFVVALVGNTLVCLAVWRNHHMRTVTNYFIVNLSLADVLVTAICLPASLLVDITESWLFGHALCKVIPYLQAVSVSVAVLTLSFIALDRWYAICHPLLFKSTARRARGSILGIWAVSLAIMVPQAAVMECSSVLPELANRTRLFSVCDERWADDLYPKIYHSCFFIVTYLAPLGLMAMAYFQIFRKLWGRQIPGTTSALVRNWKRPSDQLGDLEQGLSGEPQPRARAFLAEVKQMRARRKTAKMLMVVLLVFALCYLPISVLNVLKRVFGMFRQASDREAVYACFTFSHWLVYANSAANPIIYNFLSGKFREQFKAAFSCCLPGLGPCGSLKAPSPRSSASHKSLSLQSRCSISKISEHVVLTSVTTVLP
As to the kind of experiment: Orexin receptor cell-based functional assay, [Ca2+]i by FLIPR, CHO-OX1 cells. In a few lines: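 Antagonist mode FLIPR calcium read in CHO-OX1 and CHO-OX2 lines. Test compounds, dosed 0.1 nM-10 μM, preincubated 30 min after 37° C dye loading with 2.5 mM probenecid (calcium4 for 30 min or calcium6 for 2 h).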

The next data set concerns the target T2, CYP3A4 (Homo sapiens, UniProt P08684).
T2 construct: pre-incubated with human liver microsomes and NADPH; from tissue; host or cells: human liver microsomes
The data set can be described thus: Cytochrome P450 inhibition assay (midazolam hydroxylation). The format is in vitro ADME. The following applies: human, human liver microsomes, probe midazolam (hydroxylation to 1′-hydroxymidazolam), 10 μM test compound, midazolam at approximately its Km. Summed up: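 Percent inhibition of midazolam 1′-hydroxylation by 10 μM compound was measured, midazolam dosed at about Km. Time-dependent inhibition was probed by a 30 min preincubation of compound with human liver microsomes and NADPH ahead of substrate, compared against samples without preincubation.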
(Liver microsomes are a subcellular fraction often used to study metabolism.)

[1] abbreviates: CHO-OX1 cells, [Ca2+]i by FLIPR, antagonist dose-range 0.1 nM-10 μM, EC90 of OXA, read-out: OX1.

The structures appear in SMILES notation. Like-named read-outs stand apart in the source and are kept apart here.

T2 sequence (P08684 whole entry): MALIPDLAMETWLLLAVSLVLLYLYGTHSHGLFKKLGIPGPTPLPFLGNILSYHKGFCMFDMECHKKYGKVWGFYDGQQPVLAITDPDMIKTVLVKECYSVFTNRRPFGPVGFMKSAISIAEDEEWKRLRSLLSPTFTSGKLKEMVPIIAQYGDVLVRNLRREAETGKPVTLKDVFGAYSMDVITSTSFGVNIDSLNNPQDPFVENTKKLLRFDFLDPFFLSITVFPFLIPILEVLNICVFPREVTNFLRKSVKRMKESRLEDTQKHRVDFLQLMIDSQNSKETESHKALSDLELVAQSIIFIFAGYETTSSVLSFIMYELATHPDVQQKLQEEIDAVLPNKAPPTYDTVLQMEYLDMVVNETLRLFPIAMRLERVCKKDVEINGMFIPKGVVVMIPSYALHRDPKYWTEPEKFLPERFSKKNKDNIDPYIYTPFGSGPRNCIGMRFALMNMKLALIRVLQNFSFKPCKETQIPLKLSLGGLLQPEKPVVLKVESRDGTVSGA

For orientation: inhibition means how much of the control response was suppressed. Higher therefore signals a strong effect. As to `C[C@@H]1CCCN(C(=O)c2ccccc2-n2nccn2)[C@@H]1CNc1nc2ccccc2o1` [Example A218, (2-(2H-1,2,3-Triazol-2-yl)phenyl)((2S,3R)-2-((benzo[d]oxazol-2-ylamino)methyl)-3-methylpiperidin-1-yl)methanone], the IC50 on OX1 (setting [1]) was determined as 0.13 µM. The same compound had an inhibition at 10 µM against CYP3A4 of 75%.

As for `C[C@@H]1CCCN(C(=O)c2cc(F)ccc2-c2ncccn2)[C@@H]1CNc1ncc(C(F)(F)F)cn1` [Example A227, (5-Fluoro-2-(pyrimidin-2-yl)phenyl)((2S,3R)-3-methyl-2-(((5-(trifluoromethyl)pyrimidin-2-yl)amino)methyl)piperidin-1-yl)methanone], the IC50 at OX1 (setting [1]) is 0.002 µM. Also, testing at 10 µM at CYP3A4 gave an inhibition of 59%.

Regarding `Cc1ccc(-c2ccccn2)c(C(=O)N2CCC[C@@H](C)[C@H]2CNc2ccc(Cl)cn2)n1` [Example A169, ((2S,3R)-2-(((5-Chloropyridin-2-yl)amino)methyl)-3-methylpiperidin-1-yl)(6′-methyl-[2,3′-bipyridin]-2′-yl)methanone], the IC50 on OX1 (setting [1]) came out at 0.008 µM. The compound also showed an inhibition at 10 µM at CYP3A4 of 60%.

`C[C@@H]1CCCN(C(=O)c2cc(Cl)ccc2-n2nccn2)[C@@H]1CNc1ccc(Cl)cn1` [Example A161]: the IC50 on OX1 (setting [1]) was 0.013 µM. For the same compound, on CYP3A4, the inhibition at 10 µM stood at 68%.

With `Cc1ccc(-n2nccn2)c(C(=O)N2CCC[C@@H](C)[C@H]2CNc2ccc(C#N)cn2)c1` [Example A127, 6-((((2S,3R)-3-Methyl-1-(5-methyl-2-(2H-1,2,3-triazol-2-yl)benzoyl)piperidin-2-yl)methyl)amino)nicotinonitrile], the IC50 at OX1 (setting [1]) turned out to be 0.005 µM. The same compound returned an inhibition at 10 µM on CYP3A4 of 57%.

On to `Cc1ccc(-n2ncc(C)n2)c(C(=O)N2CCC[C@@H](C)[C@H]2CNc2ccc(F)cn2)c1` [Example A142, ((2S,3R)-2-(((5-Fluoropyridin-2-yl)amino)methyl)-3-methylpiperidin-1-yl)(5-methyl-2-(4-methyl-2H-1,2,3-triazol-2-yl)phenyl)methanone], for which the IC50 on OX1 (setting [1]) stood at 0.051 µM. On CYP3A4, this compound gave an inhibition at 10 µM of 74%.

On to `Cc1ccc(-c2cccnn2)c(C(=O)N2CCC[C@@H](C)[C@H]2CNc2ccc(C(F)(F)F)cn2)c1` [Example A197, ((2S,3R)-3-methyl-2-(((5-(trifluoromethyl)pyridin-2-yl)amino)methyl)piperidin-1-yl)(5-methyl-2-(pyridazin-3-yl)phenyl)methanone], for which, at OX1 (setting [1]), the IC50 came out at 0.007 µM. On CYP3A4, this compound registered an inhibition at 10 µM of 83%.

As to `Cc1ccc(-n2nccn2)c(C(=O)N2CCC[C@@H](C)[C@H]2CNc2nc3cc(Cl)ccc3o2)c1` [Example A11, ((2S,3R)-2-(((5-Chlorobenzo[d]oxazol-2-yl)amino)methyl)-3-methylpiperidin-1-yl)(5-methyl-2-(2H-1,2,3-triazol-2-yl)phenyl)methanone], at OX1 (setting [1]), the IC50 worked out at 0.003 µM. For the same compound, on CYP3A4, testing at 10 µM gave an inhibition of 78%.

On to `C[C@@H]1CCCN(C(=O)c2cc(Cl)ccc2-c2ncccn2)[C@@H]1CNc1ccc(C(F)(F)F)nn1` [Example A200, (5-Chloro-2-(pyrimidin-2-yl)phenyl)((2S,3R)-3-methyl-2-(((6-(trifluoromethyl)pyridazin-3-yl)amino)methyl)piperidin-1-yl)methanone], for which the IC50 on OX1 (setting [1]) came out at 0.054 µM. Further, 10 µM produced 73% inhibition against CYP3A4.

With `Cc1ccc(-c2cnn(C)c2)c(C(=O)N2CCC[C@@H](C)[C@H]2CNc2ncccc2C)c1` [Example A100, ((2S,3R)-3-Methyl-2-(((3-methylpyridin-2-yl)amino)methyl)piperidin-1-yl)(5-methyl-2-(1-methyl-1H-pyrazol-4-yl)phenyl)methanone], the IC50 at OX1 (setting [1]) amounted to 1.3 µM. This compound yielded an inhibition at 10 µM at CYP3A4 of 85%.

For the compound `Cc1ccc(-c2ccn(C)c2)c(C(=O)N2CCC[C@@H](C)[C@H]2CNc2ccc(C(F)(F)F)cn2)c1` [Example A6, ((2S,3R)-3-Methyl-2-(((5-(trifluoromethyl)pyridin-2-yl)amino)methyl)piperidin-1-yl)(5-methyl-2-(1-methyl-1H-pyrrol-3-yl)phenyl)methanone], on OX1 (setting [1]), the IC50 was determined as 0.013 µM. At CYP3A4, this compound registered an inhibition at 10 µM of 85%.

As to `C[C@@H]1CCCN(C(=O)c2cc(Cl)ccc2-n2nccn2)[C@@H]1CNc1ncc(C(F)(F)F)cn1` [Example A160, (5-Chloro-2-(2H-1,2,3-triazol-2-yl)phenyl)((2S,3R)-3-methyl-2-(((5-(trifluoromethyl)pyrimidin-2-yl)amino)methyl)piperidin-1-yl)methanone], the IC50 on OX1 (setting [1]) amounted to 0.001 µM. For the same compound, on CYP3A4, the inhibition at 10 µM turned out to be 59%.

For `Cc1ccc(-c2ccn(C)n2)c(C(=O)N2CCC[C@@H](C)[C@H]2CNc2ccc(C(F)(F)F)cn2)c1` [Example A18, ((2S,3R)-3-Methyl-2-(((5-(trifluoromethyl)pyridin-2-yl)amino)methyl)piperidin-1-yl)(5-methyl-2-(1-methyl-1H-pyrazol-3-yl)phenyl)methanone], the IC50 at OX1 (setting [1]) came to 0.007 µM. Further, the inhibition at 10 µM against CYP3A4 came to 95%.

Consider `Cc1ccc(-c2ncccn2)c(C(=O)N2CCC[C@@H](C)[C@H]2CNc2ccc(Cl)cn2)n1` [Example A186, ((2S,3R)-2-(((5-chloropyridin-2-yl)amino)methyl)-3-methylpiperidin-1-yl)(6-methyl-3-(pyrimidin-2-yl)pyridin-2-yl)methanone], for which the IC50 at OX1 (setting [1]) stood at 0.005 µM. This compound also showed an inhibition at 10 µM on CYP3A4 of 53%.

Consider `Cc1ccc(-c2ncccn2)c(C(=O)N2CCC[C@@H](C)[C@H]2CNc2nnc(C(F)(F)F)s2)n1` [Example A187, ((2S,3R)-3-Methyl-2-(((5-(trifluoromethyl)-1,3,4-thiadiazol-2-yl)amino)methyl)piperidin-1-yl)(6-methyl-3-(pyrimidin-2-yl)pyridin-2-yl)methanone], for which, at OX1 (setting [1]), the IC50 was 0.2 µM. On CYP3A4, this compound gave an inhibition at 10 µM of 40%.

Regarding `Cc1ccc(-c2ccccn2)c(C(=O)N2CCC[C@@H](C)[C@H]2CNc2ccc(C(F)(F)F)nn2)c1` [Example A150, ((2S,3R)-3-Methyl-2-(((6-(trifluoromethyl)pyridazin-3-yl)amino)methyl)piperidin-1-yl) (5-methyl-2-(pyridin-2-yl)phenyl)methanone], the IC50 on OX1 (setting [1]) was 0.13 µM. This compound displayed an inhibition at 10 µM at CYP3A4 of 74%.

Regarding `Cc1ccc(NC[C@@H]2[C@H](C)CCCN2C(=O)c2cc(C)ccc2-c2ccccn2)nc1` [Example A59, ((2S,3R)-3-Methyl-2-(((5-methylpyridin-2-yl)amino)methyl)piperidin-1-yl)(5-methyl-2-(pyridin-2-yl)phenyl)methanone], the IC50 at OX1 (setting [1]) was 0.05 µM. Also, the inhibition at 10 µM at CYP3A4 turned out to be 87%.

Consider `C[C@@H]1CCCN(C(=O)c2cc(F)ccc2-n2nccn2)[C@@H]1CNc1ccc(C(F)(F)F)cn1` [Example A310], for which the IC50 against OX1 (OX1 (μM)) amounted to 0.003 µM. 10 µM produced 75% inhibition against CYP3A4.

Turning to `Cc1ccc(-n2cccn2)c(C(=O)N2CCC[C@@H](C)[C@H]2CNc2ccc(Cl)cn2)n1` [Example A168, ((2S,3R)-2-(((5-Chloropyridin-2-yl)amino)methyl)-3-methylpiperidin-1-yl)(6-methyl-3-(1H-pyrazol-1-yl)pyridin-2-yl)methanone], the IC50 on OX1 (setting [1]) worked out at 0.01 µM. Moreover, the inhibition at 10 µM against CYP3A4 came to 59%.

`C[C@@H]1CCCN(C(=O)c2cc(F)c(F)cc2-n2nccn2)[C@@H]1CNc1ccc(C(F)(F)F)cn1` [Example A249, (4,5-Difluoro-2-(2H-1,2,3-triazol-2-yl)phenyl)((2S,3R)-3-methyl-2-(((5-(trifluoromethyl)pyridin-2-yl)amino)methyl)piperidin-1-yl)methanone]: the IC50 on OX1 (setting [1]) is 0.018 µM. For the same compound, at CYP3A4, the inhibition at 10 µM came to 83%.

Regarding `Cc1ccc(-n2nccn2)c(C(=O)N2CCC[C@@H](C)[C@H]2CNc2ccc(F)cn2)c1` [Example A47, ((2S,3R)-2-(((5-Fluoropyridin-2-yl)amino)methyl)-3-methylpiperidin-1-yl)(5-methyl-2-(2H-1,2,3-triazol-2-yl)phenyl)methanone], the IC50 on OX1 (setting [1]) was 0.15 µM. Besides, on CYP3A4, the inhibition at 10 µM amounted to 56%.

In the case of `Cc1ccc(-n2nccn2)c(C(=O)N2CCC[C@@H](C)[C@H]2CNc2nc3ccc(Cl)cc3o2)c1` [Example A14, ((2S,3R)-2-(((6-Chlorobenzo[d]oxazol-2-yl)amino)methyl)-3-methylpiperidin-1-yl)(5-methyl-2-(2H-1,2,3-triazol-2-yl)phenyl)methanone], the IC50 on OX1 (setting [1]) is 0.01 µM. At 10 µM the inhibition at CYP3A4 was 80%.

Regarding `Cc1ccc(-n2nccn2)c(C(=O)N2CCC[C@@H](C)[C@H]2CNc2ncc(C(F)(F)F)cn2)n1` [Example A175, ((2S,3R)-3-Methyl-2-(((5-(trifluoromethyl)pyrimidin-2-yl)amino)methyl)piperidin-1-yl)(6-methyl-3-(2H-1,2,3-triazol-2-yl)pyridin-2-yl)methanone], the IC50 at OX1 (setting [1]) was found to be 0.001 µM. Also, at 10 µM the inhibition against CYP3A4 was 33%.
